Experimental findings from patent US20190358264A1, “METHODS OF TREATING DISEASES ASSOCIATED WITH ILC2 CELLS” (Limm Therapeutics, SA, priority 2016, published 2019) are described below.

The test system of one assay is Th2. The assay is described as follows: In vitro stimulation of Th2 cells with NmU23, type 2 cytokine gene expression. The note with it: NmU23 100 ng/mL in vitro (FIG. 9f). Type of assay: cell-based, mouse. The text has this: FIGS. 9a-9i: FIG. 9a, Nmur1 quantitative RT-PCR analysis in the lungs at day 6 post Nippostrongylus brasiliensis (NB)—infection in lung. Eosinophils (Eo); Mast cells (Mast); Macrophages (Mø); Neutrophils (Neu); naive T cells (T); Innate lymphoid cells type 2 (ILC2). FIG. 9b, NMUR1 expression in human adaptive (CD4 T cells) and innate type 2 lymphocytes ILC2 from blood. FIG. 9c, Type 2 cytokine gene expression in human ILC2 and Th2 after in vitro stimulation with the peptide NmU25. FIG. 9d, Nmur1 expression in lung ILC2 before and after infection (at day 6). FIG. 9e, Nmur1 expression in steady state in Common lymphoid progenitor (CLP); Common helper innate lymphoid progenitor (CHILP), Bone marrow ILC2 progenitor (ILC2P) and Eo, Mast, Mø, Neu, Dendritic cells (DC); naive T cells (T); T-helper 2 cells (Th2); memory T cells, B cells (B), Lamina Propria glial cells (G) and neurons (N). n=3-6. FIG. 9f, Type 2 cytokine gene expression in intestinal ILC2 and Th2 after in vitro stimulation with the peptide NmU23 (100 ng/mL). n=3-6. FIG. 9g, Confocal analysis of intestinal lamina propria. Green: neurons (Ret^GFP); Cyan: KLRG1; red: CD3. […]
Total RNA was extracted using RNeasy micro kit (Qiagen) according to the manufacturer's protocol. RNA concentration was determined using Nanodrop Spectrophotometer (Nanodrop Technologies). Quantitative real-time RT-PCR was performed as previously described^5,8. […]

The subject of another assay is intestine ILC2. The assay is described as follows: Ki67 expression in intestine ILC2 after in vivo administration of NmU23. Also on record: species or system mouse. The note with it: NmU23 4 g/day during 2 days (FIG. 10b). As to the method: FIGS. 10a-10d: FIG. 10a, Ki67 expression in intestinal ILC2s after an overnight in vitro stimulation with NmU23 alone (100 ng/mL, Phoenix Pharmaceutical) or NmU23 together with the survival cytokines Interleukin (IL)-2 and/or IL-7 (10 ng/mL). FIG. 10b, Ki67 expression in intestine ILC2 after in vivo administration of NmU23 (4 g/day during 2 days). n=5. FIG. 10c, ILC2-derived type 2 cytokines (IL-5, IL-13 and Amphiregulin (Areg)) in sorted intestine ILC2 after an overnight stimulation with NmU23, mouse recombinant IL-25 or IL-33 (R&D) (10, 50 and 100 ng/mL). Negative control: unstimulated ILC2, Positive control: ILC2 activated with phorbol 12-myristate 13-acetate (PMA, 50 ng/ml) plus ionomycin (500 ng/ml). n=3. FIG. 10d, Dot plots representative of the cytokine production with increasing dose of NmU23, rIL-25 and rIL-33. *P<0.05; **P<0.01; ***P<0.001; ****P<0.0001; ns not significant.

In another assay the test system is ERK1/2. As to the kind of experiment: ERK phosphorylation in purified ILC2s activated with NmU23. It is filed as cell-based, mouse. The note with it: NmU23 100 ng/mL, 10 minutes, with IL-2 and IL-7. As for the experimental part: Purified ILC2s from small intestine and lung were FBS starved for 2 hours before in vitro activation with NmU23 at 37° C. To test for ERK phosphorylation (Cell Signaling Technology), purified ILC2s were activated with NmU23 (100 ng/mL; Phoenix pharmaceuticals) in the presence of IL-2 and IL-7 (10 ng/mL; Peprotech) for 10 minutes prior to intracellular staining. To test ERK, calcineurin and NFAT activation, ILC2s were cultured for 1 hour with their respective inhibitor and then stimulated with NmU23 overnight before mRNA expression analysis. ERK inhibitor—PD98059 (Sigma); Calcineurin inhibitor—FK506 (Tocris Bioscience); NFAT inhibitor—11R-VIVIT (Tocris Bioscience).

For “recombinant mouse Neuromedin U 23 peptide (FKAEYQSPSVGQSKGYFLFRPRN; listed as Mus musculus) [NmU23, NMUR1 agonist neuropeptide, Phoenix pharmaceuticals]”, the “type 2 cytokine gene expression in adaptive T cell counterparts (Th2)” value with Th2 was “unperturbed”. Further, the “ILC2 proliferation as measured by Ki67, in vivo” value in the assay with intestine ILC2 is listed as “increased ILC2 proliferation”. The “ERK1/2 activation (pERK) in ILC2s” value in the assay with ERK1/2 is “immediate and efficient ERK1/2 activation”.
